This is an account of results in patent US20230310428A1, “EGFR INHIBITOR AND PREPARATION METHOD AND USE THEREOF” (HONGYUN BIOTECH CO., LTD., priority 2020, published 2023).

Experiment in all cases: Growth inhibitory activity of compounds on BaF3 cell lines stably transfected with kinase (MTS, 48 h)
What all share (assay type): cell-based

Assay [1] concerns the target T1, various mutants of kinase EGFR (BaF3 cell lines stably transfected with kinase) (Homo sapiens, UniProt P00533).
T1 construct: other: BaF3 cells stably transfected with EGFR Δ19Del; MTS, 48 h; other: BaF3 cell line stably transfected with EGFR Δ19Del
Conditions: BaF3 cells stably transfected with EGFR Δ19Del, read-out: IC50, growth inhibition, Δ19Del. Summed up:
(§1)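 Growth is measured by MTS reduction (OD 490 nm) after 48 h compound exposure at up to 10 µM in 8 steps of 1/3. Inhibition is calculated against a 0.1% DMSO control and cell-free blank, and IC50 is derived from it.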

Assay [2] has as its target T2, various mutants of kinase EGFR (BaF3 cell lines stably transfected with kinase) (Homo sapiens, UniProt P00533, C797S/L858R/T790M).
T2 construct: expressed in transfected cells; host or cells: BaF3
As to conditions: BaF3 cells stably transfected with EGFR L858R/T790M/C797S, read-out: IC50, growth inhibition, L858R/T790M/C797S. Summed up:
as §1

Assay [3] deals with T3, various mutants of kinase EGFR (BaF3 cell lines stably transfected with kinase) (Homo sapiens, UniProt P00533, L858R).
T3 construct: expressed in transfected cells; host or cells: BaF3
As to conditions: BaF3 cells stably transfected with EGFR L858R, read-out: IC50, growth inhibition, L858R. Summed up:
as §1

The target of assay [4] is T4, various mutants of kinase EGFR (BaF3 cell lines stably transfected with kinase) (Homo sapiens, UniProt P00533, L858R/T790M).
T4 construct: expressed in transfected cells; host or cells: BaF3
As to conditions: BaF3 cells stably transfected with EGFR L858R/T790M, read-out: IC50, growth inhibition, L858R/T790M. Summed up:
as §1

The target in assay [5] is T5, various mutants of kinase EGFR (BaF3 cell lines stably transfected with kinase) (Homo sapiens, UniProt P00533, T790M/C797S, form not given).
T5 construct: other: BaF3 cells stably transfected with EGFR Δ19Del/T790M/C797S; MTS, 48; other: BaF3 cell line stably transfected with EGFR Δ19Del/T790M/C7
Conditions: BaF3 cells stably transfected with EGFR Δ19Del/T790M/C797S, read-out: IC50, growth inhibition, Δ19Del/T790M/C797S. Summed up:
as §1

Assay [6] concerns the target T6, various mutants of kinase EGFR (BaF3 cell lines stably transfected with kinase) (Homo sapiens, UniProt P00533, T790M, form not given).
T6 construct: other: BaF3 cells stably transfected with EGFR Δ19Del/T790M; MTS, 48 h; other: BaF3 cell line stably transfected with EGFR Δ19Del/T790M; MTS, 48
As to conditions: BaF3 cells stably transfected with EGFR Δ19Del/T790M, read-out: IC50, growth inhibition, Δ19Del/T790M. Summed up:
as §1

T2 sequence (P00533 25-1210 T790M/C797S/L858R): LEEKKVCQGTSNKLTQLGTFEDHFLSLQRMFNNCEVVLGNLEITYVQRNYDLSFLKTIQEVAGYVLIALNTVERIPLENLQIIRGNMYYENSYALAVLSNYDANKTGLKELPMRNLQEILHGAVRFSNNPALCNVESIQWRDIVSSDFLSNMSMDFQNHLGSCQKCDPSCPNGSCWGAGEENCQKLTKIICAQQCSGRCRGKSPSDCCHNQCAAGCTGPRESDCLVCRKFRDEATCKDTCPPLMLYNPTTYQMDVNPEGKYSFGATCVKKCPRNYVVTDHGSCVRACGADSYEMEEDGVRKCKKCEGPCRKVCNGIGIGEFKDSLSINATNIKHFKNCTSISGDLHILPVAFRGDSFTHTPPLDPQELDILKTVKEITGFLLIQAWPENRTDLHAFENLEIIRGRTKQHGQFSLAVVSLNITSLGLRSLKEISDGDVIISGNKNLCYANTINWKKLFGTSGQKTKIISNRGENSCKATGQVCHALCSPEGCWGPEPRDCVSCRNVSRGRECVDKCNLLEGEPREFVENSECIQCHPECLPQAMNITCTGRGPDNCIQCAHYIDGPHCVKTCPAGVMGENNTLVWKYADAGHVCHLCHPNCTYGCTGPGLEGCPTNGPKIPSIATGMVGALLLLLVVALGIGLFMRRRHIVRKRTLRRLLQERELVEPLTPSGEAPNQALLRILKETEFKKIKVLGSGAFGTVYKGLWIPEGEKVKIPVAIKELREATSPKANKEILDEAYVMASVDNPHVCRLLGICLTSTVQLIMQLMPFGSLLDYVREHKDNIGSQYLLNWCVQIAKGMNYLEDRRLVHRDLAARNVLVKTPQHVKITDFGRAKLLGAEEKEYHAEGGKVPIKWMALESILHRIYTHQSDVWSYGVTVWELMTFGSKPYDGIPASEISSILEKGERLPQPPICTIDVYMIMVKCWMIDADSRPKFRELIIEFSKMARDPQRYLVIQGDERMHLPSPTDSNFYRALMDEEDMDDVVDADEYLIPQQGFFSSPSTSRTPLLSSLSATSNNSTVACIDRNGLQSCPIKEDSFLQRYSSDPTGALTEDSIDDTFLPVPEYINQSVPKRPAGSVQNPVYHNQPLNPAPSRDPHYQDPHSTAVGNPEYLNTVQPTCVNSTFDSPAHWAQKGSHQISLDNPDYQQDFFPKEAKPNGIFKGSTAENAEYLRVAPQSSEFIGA
T3 sequence (P00533 25-1210 L858R): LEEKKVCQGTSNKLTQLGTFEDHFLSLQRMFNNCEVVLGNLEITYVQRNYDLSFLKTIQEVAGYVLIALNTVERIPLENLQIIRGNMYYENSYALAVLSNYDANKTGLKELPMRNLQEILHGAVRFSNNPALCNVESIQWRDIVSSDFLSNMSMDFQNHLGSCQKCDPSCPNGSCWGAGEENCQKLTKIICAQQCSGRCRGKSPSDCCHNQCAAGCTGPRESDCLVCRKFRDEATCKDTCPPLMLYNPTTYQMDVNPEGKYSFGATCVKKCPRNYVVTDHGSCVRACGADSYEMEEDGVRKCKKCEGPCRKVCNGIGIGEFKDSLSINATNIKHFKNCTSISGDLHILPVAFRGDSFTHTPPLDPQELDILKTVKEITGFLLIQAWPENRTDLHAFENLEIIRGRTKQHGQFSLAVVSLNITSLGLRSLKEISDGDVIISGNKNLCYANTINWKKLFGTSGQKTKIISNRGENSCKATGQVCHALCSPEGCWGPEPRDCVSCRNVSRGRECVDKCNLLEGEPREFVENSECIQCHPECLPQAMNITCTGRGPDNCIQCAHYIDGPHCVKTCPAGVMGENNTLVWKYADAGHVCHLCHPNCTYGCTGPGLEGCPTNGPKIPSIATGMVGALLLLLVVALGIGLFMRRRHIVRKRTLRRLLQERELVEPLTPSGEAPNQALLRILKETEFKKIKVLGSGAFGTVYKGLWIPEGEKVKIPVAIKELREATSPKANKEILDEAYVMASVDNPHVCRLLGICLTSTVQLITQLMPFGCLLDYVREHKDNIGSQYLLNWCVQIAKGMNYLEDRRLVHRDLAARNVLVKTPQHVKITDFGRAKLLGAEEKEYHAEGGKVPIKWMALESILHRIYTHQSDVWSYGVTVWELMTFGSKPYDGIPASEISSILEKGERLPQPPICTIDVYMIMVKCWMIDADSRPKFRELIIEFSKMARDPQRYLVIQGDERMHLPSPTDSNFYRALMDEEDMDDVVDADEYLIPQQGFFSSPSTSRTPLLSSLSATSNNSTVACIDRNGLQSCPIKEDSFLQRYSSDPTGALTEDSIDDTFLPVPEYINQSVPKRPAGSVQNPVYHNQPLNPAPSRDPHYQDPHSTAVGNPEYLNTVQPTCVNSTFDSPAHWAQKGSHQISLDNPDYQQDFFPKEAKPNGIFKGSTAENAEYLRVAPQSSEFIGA
T1 sequence (P00533 with tags, fused parts or gaps DEL746-750): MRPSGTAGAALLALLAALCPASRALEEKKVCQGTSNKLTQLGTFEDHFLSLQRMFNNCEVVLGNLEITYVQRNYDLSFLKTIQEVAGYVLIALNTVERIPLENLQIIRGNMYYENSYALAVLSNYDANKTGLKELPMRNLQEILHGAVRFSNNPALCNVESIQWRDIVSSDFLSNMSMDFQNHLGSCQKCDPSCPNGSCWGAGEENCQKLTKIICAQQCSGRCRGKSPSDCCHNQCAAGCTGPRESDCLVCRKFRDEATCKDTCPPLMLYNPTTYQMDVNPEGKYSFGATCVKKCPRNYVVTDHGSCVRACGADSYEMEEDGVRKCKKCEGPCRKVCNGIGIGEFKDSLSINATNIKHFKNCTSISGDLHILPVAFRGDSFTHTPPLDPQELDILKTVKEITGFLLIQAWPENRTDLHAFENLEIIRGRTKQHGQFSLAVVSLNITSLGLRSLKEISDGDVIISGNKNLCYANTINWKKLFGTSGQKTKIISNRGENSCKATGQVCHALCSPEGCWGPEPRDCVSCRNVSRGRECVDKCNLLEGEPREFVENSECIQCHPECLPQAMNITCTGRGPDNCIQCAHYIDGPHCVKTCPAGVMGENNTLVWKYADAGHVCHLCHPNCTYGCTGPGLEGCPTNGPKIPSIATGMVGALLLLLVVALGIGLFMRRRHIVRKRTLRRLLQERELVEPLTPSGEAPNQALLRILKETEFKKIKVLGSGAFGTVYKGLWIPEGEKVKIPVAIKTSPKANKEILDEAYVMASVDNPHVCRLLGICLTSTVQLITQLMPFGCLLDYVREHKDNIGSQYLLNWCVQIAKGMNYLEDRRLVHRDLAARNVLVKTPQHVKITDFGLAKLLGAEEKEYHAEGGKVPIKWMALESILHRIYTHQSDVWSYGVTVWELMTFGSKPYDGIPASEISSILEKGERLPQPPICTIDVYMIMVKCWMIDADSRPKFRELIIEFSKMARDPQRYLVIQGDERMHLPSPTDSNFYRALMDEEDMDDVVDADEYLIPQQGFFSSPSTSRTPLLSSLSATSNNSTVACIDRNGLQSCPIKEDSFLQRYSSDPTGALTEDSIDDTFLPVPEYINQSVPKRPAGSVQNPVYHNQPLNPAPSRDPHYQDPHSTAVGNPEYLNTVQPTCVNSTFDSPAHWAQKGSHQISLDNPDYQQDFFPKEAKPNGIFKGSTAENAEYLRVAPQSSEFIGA
T4 sequence (P00533 25-1210 T790M/L858R): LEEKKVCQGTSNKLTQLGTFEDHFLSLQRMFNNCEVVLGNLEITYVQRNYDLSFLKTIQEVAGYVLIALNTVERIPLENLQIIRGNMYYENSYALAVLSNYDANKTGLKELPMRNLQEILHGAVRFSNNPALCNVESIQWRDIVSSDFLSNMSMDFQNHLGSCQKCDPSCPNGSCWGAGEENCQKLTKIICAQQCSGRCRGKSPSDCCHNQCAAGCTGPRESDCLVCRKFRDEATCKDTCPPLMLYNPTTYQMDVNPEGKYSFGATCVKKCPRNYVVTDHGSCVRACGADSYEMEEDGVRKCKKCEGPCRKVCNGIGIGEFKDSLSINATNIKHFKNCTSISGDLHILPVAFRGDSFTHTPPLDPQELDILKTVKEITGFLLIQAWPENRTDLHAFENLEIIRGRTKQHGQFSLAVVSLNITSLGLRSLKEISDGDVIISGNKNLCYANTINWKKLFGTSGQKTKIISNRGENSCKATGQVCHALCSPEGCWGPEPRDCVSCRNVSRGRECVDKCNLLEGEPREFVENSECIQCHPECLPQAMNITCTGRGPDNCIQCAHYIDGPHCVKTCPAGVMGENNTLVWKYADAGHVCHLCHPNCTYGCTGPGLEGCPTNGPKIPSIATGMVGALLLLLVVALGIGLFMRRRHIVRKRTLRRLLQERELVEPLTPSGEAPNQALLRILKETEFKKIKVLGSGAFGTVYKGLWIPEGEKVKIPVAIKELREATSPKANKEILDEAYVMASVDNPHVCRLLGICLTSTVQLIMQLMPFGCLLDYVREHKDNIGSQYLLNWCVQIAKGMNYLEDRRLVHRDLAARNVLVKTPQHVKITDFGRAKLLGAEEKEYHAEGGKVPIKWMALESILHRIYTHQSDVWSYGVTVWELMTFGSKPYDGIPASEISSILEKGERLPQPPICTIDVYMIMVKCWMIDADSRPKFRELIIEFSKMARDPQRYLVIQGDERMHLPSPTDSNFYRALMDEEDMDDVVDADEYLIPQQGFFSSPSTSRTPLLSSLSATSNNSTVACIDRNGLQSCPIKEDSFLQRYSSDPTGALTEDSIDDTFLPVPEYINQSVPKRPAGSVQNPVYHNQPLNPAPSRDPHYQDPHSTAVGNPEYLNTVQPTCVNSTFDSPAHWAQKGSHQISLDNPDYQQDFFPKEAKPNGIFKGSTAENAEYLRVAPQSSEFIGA

In the case of `CCc1cc(Nc2ncc(Cl)c(Nc3ccc4nccnc4c3N(C3CC3)S(C)(=O)=O)n2)c(OC)cc1N1CCN(C)CC1` [Compound I-245], the IC50 in assay [1], in assay [2], in assay [3], in assay [4], in assay [5] and in assay [6] was no more than 50 nM in each case.
With `COc1cc(N2CCC(N(C)C)C2)c(C)cc1Nc1ncc(Cl)c(Nc2ccc3nccnc3c2N(C2CC2)S(C)(=O)=O)n1` (stereo not drawn) [Compound I-246], the IC50 in assay [1], in assay [2], in assay [3], in assay [4], in assay [5] and in assay [6] was no more than 50 nM each time.
Consider `COc1cc(N2CCC(N3CCN(C)CC3)CC2)ccc1Nc1ncc(F)c(Nc2ccc3nccnc3c2N(C)S(=O)(=O)C2CC2)n1` [Compound I-247], for which the IC50 in assay [1] was in the range of 50 to 500 nM; in assay [2], 500 to 2500 nM; in assay [3], 50 to 500 nM; in assay [4], 500 to 2500 nM; in assay [5], 50 to 500 nM; in assay [6], 500 to 2500 nM.
For `COc1cc(N2CCC(N3CCN(C)CC3)CC2)c(C)cc1Nc1ncc(F)c(Nc2ccc3nccnc3c2N(C)S(=O)(=O)C2CC2)n1` [Compound I-248], the IC50 in assay [1] was no more than 50 nM; in assay [2], 50 to 500 nM; in assay [3], no more than 50 nM; in assay [4] it was no more than 50 nM; in assay [5], no more than 50 nM; in assay [6] it was 50 to 500 nM.
In the case of `CCc1cc(Nc2ncc(F)c(Nc3ccc4nccnc4c3N(C)S(=O)(=O)C3CC3)n2)c(OC)cc1N1CCC(N2CCN(C)CC2)CC1` [Compound I-249], the IC50 in assay [1] is no more than 50 nM; in assay [2], 50 to 500 nM; in assay [3], no more than 50 nM; in assay [4], no more than 50 nM; in assay [5], no more than 50 nM; in assay [6] it was 50 to 500 nM.
Take `CCc1cc(Nc2ncc(F)c(Nc3ccc4nccnc4c3N(C)S(=O)(=O)C3CC3)n2)c(OC(F)(F)F)cc1N1CCC(N2CCN(C)CC2)CC1` [Compound I-250]: the IC50 in assay [1] lay in the range of 50 to 500 nM; in assay [2], 500 to 2500 nM; in assay [3], 50 to 500 nM; in assay [4], 50 to 500 nM; in assay [5], 50 to 500 nM; in assay [6], 500 to 2500 nM.
On to `COc1cc(N2CCC(N3CCN(C)CC3)CC2)c(CC2CC2)cc1Nc1ncc(F)c(Nc2ccc3nccnc3c2N(C)S(=O)(=O)C2CC2)n1` [Compound I-251], for which the IC50 in assay [1] is 50 to 500 nM; in assay [2] it was 500 to 2500 nM; in assay [3], 50 to 500 nM; in assay [4], 50 to 500 nM; in assay [5] it was 50 to 500 nM; in assay [6], 500 to 2500 nM.
As for `CCc1cc(Nc2ncc(F)c(Nc3ccc4nccnc4c3N(C)S(=O)(=O)C3CC3)n2)c(OC)cc1N1CCC(N(C)C)CC1` [Compound I-252], the IC50 in assay [1] was no more than 50 nM; in assay [2], 50 to 500 nM; in assay [3] it was no more than 50 nM; in assay [4], no more than 50 nM; in assay [5], no more than 50 nM; in assay [6] it was 50 to 500 nM.
With `CCc1cc(Nc2ncc(Cl)c(Nc3ccc4nccnc4c3N(C)S(=O)(=O)C(C)C)n2)c(OC)nc1N1CCC(N2CCN(C)CC2)CC1` [Compound I-253], the IC50 in assay [1] is 50 to 500 nM; in assay [2] it was 50 to 500 nM; in assay [3] it was 50 to 500 nM; in assay [4], 50 to 500 nM; in assay [5] it was no more than 50 nM; in assay [6] it was no more than 50 nM.
Turning to `COc1cc(N2CCC(N3CCN(C)CC3)CC2)c(CC2CC2)cc1Nc1ncc(Cl)c(Nc2ccc3nccnc3c2N(C)S(=O)(=O)C(C)C)n1` [Compound I-254], the IC50 in assay [1] is 50 to 500 nM; in assay [2], 50 to 500 nM; in assay [3] it was 50 to 500 nM; in assay [4], 50 to 500 nM; in assay [5], 50 to 500 nM; in assay [6], no more than 50 nM.
In the case of `CCc1cc(Nc2ncc(Cl)c(Nc3ccc4nccnc4c3N(C)S(=O)(=O)C(C)C)n2)c(OC)cc1N1CCN(C)CC1` [Compound I-255], the IC50 is 50 to 500 nM in assay [1]; 50 to 500 nM in assay [2]; 50 to 500 nM in assay [3]; 50 to 500 nM in assay [4]; no more than 50 nM in assay [5]; no more than 50 nM in assay [6].
Take `COc1cc(N2CCC(N3CCN(C)CC3)CC2)ccc1Nc1ncc(Br)c(Nc2ccc3nccnc3c2N(C)S(=O)(=O)C(F)(F)F)n1` [Compound I-256]: the IC50 fell in the range of 500 to 2500 nM in assay [1]; 50 to 500 nM in assay [2]; 500 to 2500 nM in assay [3]; 50 to 500 nM in assay [4]; 50 to 500 nM in assay [5]; 500 to 2500 nM in assay [6].
For `CCc1cc(Nc2ncc(Br)c(Nc3ccc4nccnc4c3N(C)S(=O)(=O)C(F)(F)F)n2)c(OC)nc1N1CCC(N2CCN(C)CC2)CC1` [Compound I-257], the IC50 in assay [1] is 500 to 2500 nM; in assay [2], 50 to 500 nM; in assay [3], 500 to 2500 nM; in assay [4] it was 50 to 500 nM; in assay [5], no more than 50 nM; in assay [6], 50 to 500 nM.
Take `C=Cc1cc(Nc2ncc(Br)c(Nc3ccc4nccnc4c3N(C)S(=O)(=O)C(F)(F)F)n2)c(OC(F)(F)F)cc1N1CCC(N2CCN(C)CC2)CC1` [Compound I-258]: the IC50 is 500 to 2500 nM in assay [1]; 50 to 500 nM in assay [2]; 500 to 2500 nM in assay [3]; 50 to 500 nM in assay [4]; no more than 50 nM in assay [5]; 50 to 500 nM in assay [6].
Consider `COc1cc(N2CCC(N3CCN(C)CC3)CC2)c(CC2CC2)cc1Nc1ncc(Br)c(Nc2ccc3nccnc3c2N(C)S(=O)(=O)C(F)(F)F)n1` [Compound I-259], for which the IC50 in assay [1] was 500 to 2500 nM; in assay [2], 50 to 500 nM; in assay [3], 500 to 2500 nM; in assay [4], 500 to 2500 nM; in assay [5] it was 50 to 500 nM; in assay [6], 500 to 2500 nM.
Turning to `CCc1cc(Nc2ncc(Br)c(Nc3ccc4nccnc4c3N(C)S(=O)(=O)C(F)(F)F)n2)c(OC)cc1N1CCN(C)CC1` [Compound I-260], the IC50 is 500 to 2500 nM in assay [1]; 50 to 500 nM in assay [2]; 500 to 2500 nM in assay [3]; 50 to 500 nM in assay [4]; no more than 50 nM in assay [5]; 50 to 500 nM in assay [6].
Turning to `COc1cc(N2CCC(N3CCN(C)CC3)CC2)ccc1Nc1ncc(Cl)c(Nc2ccc3nccnc3c2N(C)S(=O)(=O)C(F)(F)F)n1` [Compound I-261], the IC50 was in the range of 500 to 2500 nM in assay [1]; 50 to 500 nM in assay [2]; 500 to 2500 nM in assay [3]; 50 to 500 nM in assay [4]; 50 to 500 nM in assay [5]; 50 to 500 nM in assay [6].
Turning to `CCc1cc(Nc2ncc(Cl)c(Nc3ccc4nccnc4c3N(C)S(=O)(=O)C(F)(F)F)n2)c(OC)nc1N1CCC(N2CCN(C)CC2)CC1` [Compound I-262], the IC50 is 500 to 2500 nM in assay [1]; 50 to 500 nM in assay [2]; 500 to 2500 nM in assay [3]; 500 to 2500 nM in assay [4]; 50 to 500 nM in assay [5]; 50 to 500 nM in assay [6].
For the compound `C=Cc1cc(Nc2ncc(Cl)c(Nc3ccc4nccnc4c3N(C)S(=O)(=O)C(F)(F)F)n2)c(OC(F)(F)F)cc1N1CCC(N2CCN(C)CC2)CC1` [Compound I-263], the IC50 in assay [1] was in the range of 500 to 2500 nM; in assay [2] it was 50 to 500 nM; in assay [3], 500 to 2500 nM; in assay [4] it was 500 to 2500 nM; in assay [5], 50 to 500 nM; in assay [6], 50 to 500 nM.
